# According to patent US20130251822A1, “BIOCIDAL ALDEHYDE COMPOSITION” (priority 2011, published 2013):
# What was measured:
# Pseudomonas aeruginosa = assay: chlorine dioxide (ClO2) and TTPC versus Pseudomonas aeruginosa, log reduction; type: cell-based; conditions: 10^5 ml
# Protocol: A test with chlorine dioxide (ClO2) and TTPC versus Pseudomonas aeruginosa was performed at 10^5 ml with ClO2 of 10 ppm. This alone gave a 1 log reduction in 30 min exposure. TTPC alone at 50 ppm gave a 2 log reduction. The combination of ClO2 and TTPC of 5ppm and 10 ppm gave a 5 log reduction in 30 min.
# [1] = cited from earlier work
# [2] = effective kill time based upon log reduction, TTPC versus dual chain quaternary ammonium; type: cell-based; conditions: TTPC alone
# Protocol: (§1) When TTPC was added to the core glutaraldehyde or OPA as a substitute for dual chain quaternary ammonium the effective kill time was twice as fast (2×) based upon log reduction. Similarly, the TTPC reduced the effective kill time of acid-producing bacteria (APB) by almost 50%. Although the kill speed of TTPC alone was 20% slower than the glut/quat formula of copending U.S. patent application Ser. No. 12/584,648, when incorporated with glutaraldehyde as a substitute for dual chain quaternary ammonium the kill time […] to four times faster, evidencing the synergism of the present combination.
# [3] = tested on: acid-producing bacteria (APB); assay: effective kill time of acid-producing bacteria; type: cell-based
# Protocol: as §1
# [4] = effectiveness based upon a 5 log reduction in oil frac water; type: cell-based
# Source text: (§2) As such there is actually a slight increase in planktonic microbes which are more susceptible to biocide/TTPC effects. Individual biocides affect the physiology of the cell quite differently. […] This is an example of enhanced […]. The importance of the environmental parameter cannot be underestimated based upon the foregoing results. TTPC has a similar margin of exposure as the quats used for killing of aerobic organisms. […] The minimum inhibitory concentration (MIC) for the TTPC usage is 50-500 ppm. Therefore it is safe regarding corrosiveness, an important facet in instrument sterilization. […] The faster cidal action is due basically to the chemistry difference between amine quats and phosphonium salts. The ammonium quats have longer alkyl chains. Instead of amine the difference is a phosphonium ion but also importantly is the alkyl chain length. It has been determined that there is an optimal length for anti-bacterial effectiveness. It was dependent upon chain length and attachment moieties. […] Usually the longer chain was better but not in these cases. […] TTPC did. There are great differences between Gram + and Gram − bacteria in their cell walls. […] The Gram − wall is complicated. It has in addition to the wall of G+ an outer membrane of lipopolysaccharide and phospholipids that protects the cell.
# [5] = minimum inhibitory concentration (MIC); type: cell-based
# Source text: as §2
# [6] = tested on: sulfur reducing bacteria (SRB); assay: efficacy on sulfur reducing bacteria; type: cell-based
# Source text: as §2
# [7] = tested on: MRSA, B. subtillis, E coli, pseudomonas aeruginosa, candida; assay: kill of test microorganisms in allotted time of 30 minutes; type: cell-based
# Source text: as §2
smiles,measurement,setting,value
"[O][Cl+][O-] [ClO2, chlorine dioxide]",log reduction,"Pseudomonas aeruginosa; ClO2 of 10 ppm alone, 30 min exposure",1 log reduction
"O=Cc1ccccc1C=O [OPA, orthophthalaldehyde]",disinfection time,"[1]; high level disinfectant, 20-22 degrees C.",twelve
"CCCCCCCCCCCCCC[P+](CCCC)(CCCC)CCCC.[Cl-] [TTPC, tributyl tetradecyl phosphonium chloride]",log reduction,Pseudomonas aeruginosa; TTPC alone at 50 ppm,2 log reduction
same,kill speed slower than the glut/quat formula,[2],20%
same,reduction of effective kill time,[3],~50%
same,effectiveness relative to original glut/quat formula,[4],2 ×
same,minimum inhibitory concentration (MIC),[5],50-500 ppm
same,efficacy on sulfur reducing bacteria (SRB),[6],almost equally effective
same,kill of all the test bacteria in the allotted time,[7],did
"O=CCCCC=O [glutaraldehyde, Glutaraldehyde]",residence time for disinfection,[1]; controlled temperature from 20 C to 25-30 C,45 to 90 min
